Results from paper PMC11630551, “In silico screening of protein-binding peptides with an application to developing peptide inhibitors against antibiotic resistance” (PNAS Nexus, 2024).
Entries after “also recorded” stand apart in the source; their conditions may differ.

Legend:
[1] = molecular target: T1, TEM-1 β-lactamase (Escherichia coli, UniProt P62593); assay type: biochemical
T1 construct: host or cells: E. coli BL21 (DE3)
Description: Because these peptides were designed to bind to the substrate-binding pocket of TEM-1, the interactions of TEM-1:peptide were evaluated using β-lactamase activity assay. The peptides were preincubated with purified recombinant TEM-1 at room temperature to allow binding before mixing with substrate, nitrocefin. The enzymatic activity was measured by monitoring the colorimetric change of nitrocefin with TEM-1 in the absence and presence of the peptide candidates.
Peptide screening was performed with 5 nM TEM-1 mixed with 100 μM of each peptide. The peptide was preincubated with TEM-1 at 37 °C for 30 min prior to mixing with nitrocefin. […] Nitrocefin was then rapidly mixed with the TEM-1: peptide solution to measure the absorbance change at 520 nm. The final concentrations of TEM-1 and nitrocefin in the mixture were 5 nM and 10 μM, respectively.

[2] = Solubility of synthesized peptides; conditions: excluded from assay experiments

T1 sequence (P62593 24-286 limits assumed): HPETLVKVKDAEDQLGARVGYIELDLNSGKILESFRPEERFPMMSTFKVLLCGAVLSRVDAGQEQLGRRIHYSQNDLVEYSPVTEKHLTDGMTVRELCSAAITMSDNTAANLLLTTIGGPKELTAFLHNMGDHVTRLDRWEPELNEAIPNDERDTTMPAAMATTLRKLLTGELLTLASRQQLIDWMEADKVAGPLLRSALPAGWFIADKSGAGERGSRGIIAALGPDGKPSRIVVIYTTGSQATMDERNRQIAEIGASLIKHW

Sequence | change of β-lactamase activity of TEM-1 at peptide screening concentration [1] | solubility [2]
AKYFEQASYG [TF6] | increased the β-lactamase activity; also recorded: did not exhibit significant inhibition | 
ARDATCRRWG [TF3] | increased the β-lactamase activity; also recorded: did not exhibit significant inhibition | 
ASRAEVDAAAKGAA [TF8] | did not exhibit significant inhibition | 
ESYHGMLACVIAG [TF10] |  | poor solubility
EYGDAWHDAG [TF4] | did not exhibit significant inhibition | 
RDSVGAASVN [TF9] | did not exhibit significant inhibition | 
